Measured values from patent publication US5240695A, “Use of 2-hydroxy-4-methoxybenzophenone-5-sulphonic acid or its salts for protecting the hair against environmental attacking agents, and especially against light and process for protecting the hair using the compound” (L'Oreal, priority 1988, dated 1993).

Columns and labels:
[1] = Suntest exposure (xenon emitter) of bleached hair, 15% extension level in the wet state; conditions: 120 hours Suntest; for mean value of the 15% extension level in the wet state: no rinse
[2] = Suntest exposure (xenon emitter) of permanent-waved natural hair, 15% extension level in the wet state; conditions: Example 2 styling foam (0.5 g UVINUL MS 40 in 100 g composition before aerosol packaging), no rinse, 180 hours Suntest, vs foam without UVINUL MS 40
Method: Permanent-waved natural hair receives an application of this foam and then, without this being followed by a rinse, is subjected to 180 hours' exposure to the Suntest, as described in Example 1.

## COc1cc(O)c(C(=O)c2ccccc2)cc1S(=O)(=O)O [UVINUL MS 40, 2-hydroxy-4-methoxybenzophenone-5-sulphonic acid]
[1]; Example 1 shampoo (1 g/100 g UVINUL MS 40), washed five times, vs shampoo base without UVINUL MS 40
  mean values of the 15% extension level in the wet state: substantial improvement
[1]; Example 3 styling gel (0.3 g/100 g UVINUL MS 40), three applications, vs gel without UVINUL MS 40
  mean value of the 15% extension level in the wet state: significant improvement
[1]; Example 4 styling spray (1 g/100 g UVINUL MS 40), one application, vs spray without UVINUL MS 40
  mean value of the 15% extension level in the wet state: improved very appreciably
[2]
  mean value of the 15% extension level in the wet state: significant improvement
